The record followed here is patent US10399971B2, “Compound for treating or preventing hyperuricemia or gout” (JIANGSU ATOM BIOSCIENCE AND PHARMACEUTICAL CO., LTD., priority 2015, dated 2019).

Data set [1] is described as follows: in vivo. Particulars: both, SD, rat, po.
Description: (§7) Rats were randomly divided into group A1, group B1 and blank control group. Each group has 10 of rats with half male and half female.
The target of data set [2] is T1, hURAT1 (Homo sapiens, UniProt Q96S37).
T1 sequence (Q96S37 1-553): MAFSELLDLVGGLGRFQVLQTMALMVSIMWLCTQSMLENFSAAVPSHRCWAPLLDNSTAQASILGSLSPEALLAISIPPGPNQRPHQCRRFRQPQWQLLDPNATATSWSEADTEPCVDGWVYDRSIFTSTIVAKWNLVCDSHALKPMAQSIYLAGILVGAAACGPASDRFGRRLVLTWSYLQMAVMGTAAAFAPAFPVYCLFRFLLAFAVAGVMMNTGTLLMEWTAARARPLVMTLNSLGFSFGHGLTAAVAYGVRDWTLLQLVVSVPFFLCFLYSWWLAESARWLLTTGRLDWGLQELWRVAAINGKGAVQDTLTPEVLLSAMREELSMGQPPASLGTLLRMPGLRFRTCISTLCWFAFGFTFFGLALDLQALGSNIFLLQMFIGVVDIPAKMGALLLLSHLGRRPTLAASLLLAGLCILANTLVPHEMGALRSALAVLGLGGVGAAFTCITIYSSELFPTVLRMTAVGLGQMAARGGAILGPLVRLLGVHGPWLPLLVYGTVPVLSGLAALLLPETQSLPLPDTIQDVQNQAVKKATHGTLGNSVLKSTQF
Description: Inhibition assay of uric acid transport in HEK293-hURAT1 transfection cell line. The class given is cell-based. To be noted: read-out: Inhibitory rates of uric acid transport, ±SD (%). As to the method: 2.1 Construction of a HEK293 stable cell line with high expression of hURAT1: The plasmid pCMV6-hURAT1 was transfected into HEK293 cells, then the stable strain was obtained by the G418 (final concentration 500 μg/mL) resistance screening, which is the high expression of hURAT1 transporter membrane protein.
2.2 To a coated 24-well plate was added 200 μL of 0.1 mg/mL poly-lysine per well and the plate was left overnight. Poly-lysine was removed from wells. The wells were cleaned thoroughly with aseptic water and dried for use.
2.3 To the above coated 24 well plate was added HEK293-hURAT1 stable cells (2×10^5 cells per well). The cells was cultured at 37° C. under 5% CO2 for 3 days.
The solution was fully mixed to give HBSS buffer (pH value: 7.4). The buffer was stored at −20° C.
2.5 The HBSS buffer was warmed to 37° C. in a water bath. Washed cells with HBSS twice, added 160 μL of HBSS and 20 μL test compound per well. The final concentration of tested compound per well is 500 nM. The blank control well contains only 180 μL of HBSS without tested compound. The plate was placed at room temperature for 30 min.
2.6 To each well was added 20 μL of 50 μM ^14C-Uric acid. The plate was placed at room temperature for 20 min.
2.7 The solution in each well was removed and the cells in each well were washed with pre-cooled HBSS buffer. To each well was added 0.2 M NaOH to dissolve the cells. The solution containing cell fragments was collected and the right amount of scintillation liquid was added.
The formula for calculating the inhibitory rate of uric acid transport for compounds was shown as below: […]

Data set [3] is described as follows: Acute toxicity of single oral dose in SD rats.
Description: as §7
The test system of data set [4] is human normal liver cell line WRL-68. Kind of data set: Cytotoxicity test on human normal liver cell line WRL-68 (Alamar Blue). Particulars: WRL68, WRL-68 cells, 120 h incubation, cell viability, read-out: half inhibitory concentration (IC50) against WRL-68. In kind it is cell-based. The procedure: (§1) 2.1 The normal liver cell lines L-02 and WRL-68 were cultured with DMEM culture medium (containing 10% of fetal bovine serum, 100 U/mL of penicillin and 0.1 mg/mL of streptomycin) in an incubator under 5% CO2 at 37° C. until the cell density was about 90%, respectively.
(§2) 2.3 Tested compounds and benzbromarone at different concentration gradients were prepared by using the DMEM culture medium and added into wells at 100 μL/well as compounds wells. The DMEM culture medium was added into wells at 100 μL/well without tested compound as negative control wells.
(§3) This 10× Alamar Blue solution was diluted into 1× Alamar Blue solution with phenol red free DMEM culture medium before use.
(§4) 2.5 The cells were washed with PBS (0.1 M, pH=7.4) twice. The Alamar Blue solution was added into wells at 100 μL/well. 100 μL of Alamar Blue solution was added into wells without cells to serve as blank control wells. The 96-well plate was placed in an incubator under 5% CO2 at 37° C. for 3 h. Each concentration of compound was repeated three times during the test.
(§5) The fluorescence value of the cells containing compound is the F(test compound); the fluorescence value of the cells without compound as blank control is the F(blank control); the fluorescent value of the cells from negative control group is F(negative control). The average value and standard deviation of cell viability of three repeated concentrations was calculated by the following formula: […]
(§6) 2.7 The half inhibitory concentration (IC50) of the compound for the cells L-02 and WRL-68 was obtained from the cell viability by Prism Graph software.

The subject of data set [5] is hyperuricemia mice. Description: Uric acid excretion test in hyperuricemia mice. In kind it is in vivo, Kunming mice. To be noted: 15 mg/kg oral. As to the method: Species: Kingming mice (Clean Level); body weights: 25 to 30 g; ages: 4 to 5 weeks; sex: male. These mice were purchased from Shanghai SLAC Laboratory Animal Co., Ltd. Certificate No.: SCXK (HU) 2012-2002. Animal quality certificate number: 2015000522173.
A certain amount of adenine and yeast extract powder was weighted and a certain amount of double distilled water was added. The mixture was stirred at about 60° C. for 40 min to give a suspension, which the concentration of yeast extract is 0.6 g/mL and the concentration of adenine is 12 mg/mL.
A suspension of 20 mg/mL potassium oxonate was prepared by mixing a certain amount of potassium oxonate with 0.5% CMC-Na solution before use.
Male Kunming mice were randomly divided into four groups: blank control group, model group, compound 74 group, and benzbromarone group. Each group has six mice. All mice fasted 2 to 3 h before use. The model group, benzbromarone group, and compound 74 group were orally given a suspension of yeast extract and adenine prepared above to reach the final dosage of 10 g/kg (body weight) of yeast extract and 200 mg/kg (body weight) of adenine, respectively. The blank control group was only given same volume of normal saline orally. After 2.5 h, all mice in compound 74 group and benzbromarone group were given 10 mL/kg of suspension of compound 74 (1.5 mg/mL) and 10 mL/kg of suspension of benzbromarone (1.5 mg/mL), respectively. The blank control group and model group were orally given same volume of 0.5% CMC-Na solution. All animals were treated in the same way for seven days by using administration methods described above. On the last day, after administration of a suspension of yeast extract and adenine for the model group, compound 74 group, and benzbromarone group, all mice in these three groups were given 12.5 mL/kg of potassium oxonate (20 mg/mL) by i.p. The blank control was only given same volume of 0.5% CMC-Na solution by i.p. After 30 min, compound 74 and benzbromarone were administrated orally to the mice at same dosages as above in compound 74 group and benzbromarone group, respectively. The blank control group and model group were orally given same volume of 0.5% CMC-Na solution.
Collection of urine samples: All mice were placed in metabolic cages with normal diet individually after giving test compounds on the last day. 24 h urine was collected and the urine volume was measured. The urine was centrifugated at 3000 rpm for 20 min and the supernatant was collected.
Detection of the concentration of uric acid of mice urine samples: uric acid concentration in samples was detected by using uric acid assay kit (phosphotungstic acid method) followed the procedures described in the instruction.

Data set [6] deals with human normal liver cell line L-02. Description: Cytotoxicity test on human normal liver cell line L-02 (Alamar Blue). Particulars: L02, L-02 cells, 120 h incubation, cell viability, read-out: half inhibitory concentration (IC50) against L-02. The class given is cell-based. The procedure: as §1, §2, §3, §4, §5, §6
(Resazurin is reduced to fluorescent resorufin, in cell work by metabolically active cells.)

The compound `CCc1oc2ccccc2c1C(=O)c1cc(Br)c(O)c(Br)c1` [BBR, (3,5-dibromo-4-hydroxyphenyl)(2-ethyl-benzofuran-3-yl)methanone, reference compound] came in with an MTD at 14 days in data set [1] of 140 mg/kg. In addition, in data set [2], the inhibition at 0.5 µM amounted to 55.6 ± 1.42%. Moreover, in data set [3] (SD rats, single oral dose, 74 at 5.0 g/kg, BBR at 0.14 g/kg, 10 rats per group, 14 days observation), the Death rate was 0/10. Also, in data set [3] (pre-experiment, compound 74 at 5 g/kg (highest dose), benzbromarone at 0.14 g/kg), the “death of rats in pre-experiment of acute toxicity” value was “no death of rats was found”. Besides, the IC50 amounted to 45.5 µM in data set [4] and 40.2 µM in data set [6]. In addition, the “uric acid excretion increased compared with the model group” value in data set [5] (increase over model group) is “about 25.35%”. Moreover, the “Changes of uric acid excretion (compared with model group, %)” value in data set [5] (model group set to 100%) is listed as 125.35%. Also, the “Uric acid in urine for 24 h, ±SD” value in data set [5] (seven days, 6 mice) came to 13.40 ± 1.59 mmol.
